Holding throughout (format): functional
One assay is filed under the species Mus musculus. The assay is described as follows: Effect on electrically evoked contractions in mouse vas deferens at 10E-8 to 10E-6 M concentration; No effect.
Assay [1] is described as follows: Effect on cannabinoid tetrad (nociception, temperature, spontaneous motility and catalepsy) of behavioral test; no significant effect.
The species named for another assay is Cavia porcellus. The assay is described as follows: Effect on electrically evoked contractions in […] plexus longitudinal muscles of guinea pig at 10E-8 to 2.4E-6 M; No effect. Conditions: Muscle tissue.
A short description of assay [2]: Effect on cannabinoid tetrad (nociception, temperature, spontaneous motility and catalepsy) of behavioral test; induce antinociception.
Assay [3] is described as follows: Effect on cannabinoid tetrad (nociception, temperature, spontaneous motility and catalepsy) of behavioral test; inhibit spontaneous motility.
Assay [4] in a line: Effect on cannabinoid tetrad (nociception, temperature, spontaneous motility and catalepsy) of behavioral test; induce catalepsy.
A short description of assay [5]: Effect on cannabinoid tetrad (nociception, temperature, spontaneous motility and catalepsy) of behavioral test; induce hypothermia.

The source made the active and inactive calls. The rule behind the calls is not given here.

Regarding `CCCCCCc1nc(-c2ccc(Cl)cc2)n(-c2ccc(Cl)cc2Cl)n1`, the result (in the assay listed under Mus musculus; in assay [1]; in the assay listed under Cavia porcellus) was inactive.

Consider `CCCCCCCc1nc(-c2ccccc2)n(-c2ccccc2)n1`, for which the outcome in the assay listed under Mus musculus and in the assay listed under Cavia porcellus was inactive.

For `CCCCCCc1nc(-c2ccc(Cl)cc2Cl)n(-c2ccc(Cl)cc2Cl)n1`, the result in the assay listed under Mus musculus and in the assay filed under Cavia porcellus was inactive.

Consider `CCc1nc(-c2ccc(Cl)cc2)n(-c2ccc(Cl)cc2)n1`, for which the result in the assay filed under Mus musculus and in the assay listed under Cavia porcellus was inactive.

On to `CCc1nc(-c2ccc(Cl)cc2)n(-c2ccccc2)n1`, for which the outcome in the assay listed under Mus musculus and in the assay filed under Cavia porcellus was inactive.

In the case of `Cc1c(C(=O)c2cccc3ccccc23)c2cccc3c2n1[C@H](CN1CCOCC1)CO3`, the outcome in assay [2], in assay [3], in assay [4] and in assay [5] was Active.

Take `CCCCCCc1nc(-c2ccc(Cl)cc2)n(-c2ccc(Cl)cc2)n1`: the result in the assay listed under Mus musculus and in the assay filed under Cavia porcellus was inactive.

The values are drawn from ChEMBL document CHEMBL1148316, “Discovery of 5-(4-chlorophenyl)-1-(2,4-dichlorophenyl)-3-hexyl-1h-1,2,4-triazole, a novel in vivo cannabinoid antagonist containing a 1,2,4-triazole motif” (J Med Chem, 2004).
